Test results reported in PMC4304843, “Human Mitochondrial Hsp70 (Mortalin): Shedding Light on ATPase Activity, Interaction with Adenosine Nucleotides, Solution Structure and Domain Organization” (PLoS ONE, 2015).

How the values were obtained:
[1] = target: T1, human mortalin (mtHsp70, GRP75, HspA9, PBP74) (Homo sapiens, UniProt P38646); experiment: isothermal titration calorimetry; type: binding
T1 construct: monomeric SEC fraction, alkaline phosphatase treated

human Hsp70-1A = target: T2, human Hsp70-1A (Homo sapiens, UniProt P0DMV8); experiment: ATPase, EnzChek phosphate assay, Michaelis-Menten fit; type: biochemical; details: TKP buffer without phosphate pH 7.5, 2 mM Mg2+, 37°C, no co-chaperone
T2 construct: gene HSPA1A; recombinant, expressed in E. coli BL21(DE3) as previously described
T2 sequence (P0DMV8 2-641): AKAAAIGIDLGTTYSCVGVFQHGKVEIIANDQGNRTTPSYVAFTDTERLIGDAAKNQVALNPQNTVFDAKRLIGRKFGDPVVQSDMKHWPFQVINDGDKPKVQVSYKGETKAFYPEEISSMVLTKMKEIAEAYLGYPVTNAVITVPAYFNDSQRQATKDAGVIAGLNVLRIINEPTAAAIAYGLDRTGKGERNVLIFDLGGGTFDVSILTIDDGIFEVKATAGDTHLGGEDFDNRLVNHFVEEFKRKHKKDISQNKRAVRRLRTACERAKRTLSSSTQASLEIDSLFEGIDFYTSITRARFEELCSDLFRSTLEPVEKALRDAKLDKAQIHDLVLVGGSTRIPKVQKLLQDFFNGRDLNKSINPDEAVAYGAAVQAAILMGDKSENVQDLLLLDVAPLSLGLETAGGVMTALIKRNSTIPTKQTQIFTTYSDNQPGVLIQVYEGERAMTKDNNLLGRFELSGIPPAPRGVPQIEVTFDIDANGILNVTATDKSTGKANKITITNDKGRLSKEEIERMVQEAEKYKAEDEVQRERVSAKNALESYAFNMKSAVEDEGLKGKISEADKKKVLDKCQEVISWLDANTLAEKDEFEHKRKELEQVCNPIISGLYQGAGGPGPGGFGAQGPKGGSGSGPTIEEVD
Text: ATPase, EnzChek phosphate assay, Michaelis-Menten fit on human Hsp70-1A

T1 sequence (P38646 47-679): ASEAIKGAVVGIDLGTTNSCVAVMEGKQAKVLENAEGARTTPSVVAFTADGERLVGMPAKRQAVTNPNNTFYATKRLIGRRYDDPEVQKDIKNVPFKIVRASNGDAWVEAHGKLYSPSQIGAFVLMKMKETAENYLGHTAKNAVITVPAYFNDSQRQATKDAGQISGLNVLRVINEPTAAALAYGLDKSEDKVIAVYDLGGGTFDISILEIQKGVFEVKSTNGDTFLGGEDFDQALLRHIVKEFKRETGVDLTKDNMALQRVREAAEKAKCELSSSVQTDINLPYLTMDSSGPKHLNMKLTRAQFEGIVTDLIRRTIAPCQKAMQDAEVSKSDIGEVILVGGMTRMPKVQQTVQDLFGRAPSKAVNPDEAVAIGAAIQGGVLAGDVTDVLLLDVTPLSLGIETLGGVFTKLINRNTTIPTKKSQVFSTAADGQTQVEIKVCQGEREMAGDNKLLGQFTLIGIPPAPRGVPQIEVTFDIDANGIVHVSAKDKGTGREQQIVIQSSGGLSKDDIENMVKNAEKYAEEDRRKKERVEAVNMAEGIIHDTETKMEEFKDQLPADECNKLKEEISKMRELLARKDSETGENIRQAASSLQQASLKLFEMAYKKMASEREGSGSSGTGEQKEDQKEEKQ

| Km (human Hsp70-1A) [µM] | SMILES | Kd [1] [nM] |
| --- | --- | --- |
|  | Nc1ncnc2c1ncn2[C@@H]1O[C@H](COP(=O)(O)OP(=O)(O)O)[C@@H](O)[C@H]1O [ADP] | 2200 ± 100 |
| 270 ± 40 | Nc1ncnc2c1ncn2[C@@H]1O[C@H](COP(=O)(O)OP(=O)(O)OP(=O)(O)O)[C@@H](O)[C@H]1O [ATP] | 1100 ± 100 |
